Legend:
hD2 receptor = hD2 receptor (Homo sapiens, UniProt P14416); experiment: Radioligand binding, dopaminergic D2 receptor ([3H]spiperone)
human TAAR1 = molecular target: T1, human TAAR1 (Homo sapiens, UniProt Q96RJ0); experiment: Activation potency at human TAAR1 (cAMP assay, HEK 293 cells); type: cell-based
T1 construct: expressed in transfected cells; host or cells: HEK 293 cells
T1 sequence (Q96RJ0 1-339): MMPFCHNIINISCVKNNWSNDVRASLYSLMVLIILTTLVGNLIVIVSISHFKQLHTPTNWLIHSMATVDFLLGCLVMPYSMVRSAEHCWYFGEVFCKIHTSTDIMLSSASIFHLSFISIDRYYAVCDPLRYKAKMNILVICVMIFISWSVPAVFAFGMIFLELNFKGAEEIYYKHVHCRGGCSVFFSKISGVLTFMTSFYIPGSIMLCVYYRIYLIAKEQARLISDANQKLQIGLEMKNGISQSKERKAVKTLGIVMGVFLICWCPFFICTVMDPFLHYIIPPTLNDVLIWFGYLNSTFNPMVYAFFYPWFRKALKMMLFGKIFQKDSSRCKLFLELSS
Description: The activation potency at the human TAAR1 was determined as previously described by [Luethi et al. (2018)]. In summary, recombinant HEK 293 cells stably transfected with the human TAAR1 were grown in culture flasks composed of 30 mL high glucose DMEM with 10% heat inactivated fetal calf serum, […] Geneticin, and […] hygromycin B at 37 °C and 5% CO2. The cells were grown to 80%–90% confluency before collection. The cells were washed with phosphate-buffer saline (PBS) and 5 mL of trypsin/EDTA solution were added for 5 min at 37 °C to detach the cells from the flask. Then, 45 mL of fresh medium were added to the flask and the total mixture was put into a falcon tube, which was centrifuged for 3 min at 900 rpm at room temperature. The supernatant was aspirated, and the remaining cell pellet was resuspended in fresh medium to a concentration of 5 × 10^5 cells per mL. Next, 100 μL of the cell mixture was transferred to a 96 well plate (BIOCOAT 6640, Becton Dickinson, Allschwil, Switzerland) and incubated for 20 h at 37 °C. For the cAMP assay, the medium was removed and replaced with 50 μL PBS lacking calcium or magnesium ions. The PBS was extracted via snap inversion and the plate was gently tapped on tissue to remove any remaining PBS solution. The plate was then incubated with Krebs-Ringer Bicarbonate buffer (90 μL/well; KRB, Sigma-Aldrich) containing 1 mM IBMX for 1 h at 37 °C and 5% CO2/95% air. Test compounds were investigated in duplicate at various concentrations ranging from 300 pM to 30 μM. A cAMP standard curve (concentration range of 0.13 nM–10 μM) was included on each 96 well plate. Additionally, a reference plate was used containing RO5256390, β-phenylethylamine and p-tyramine. Cells were incubated with either 30 μL of compound solution, β-phenylethylamine (which represented the maximal response) or a basal control in PBS (supplemented with 1 mM IBMX) for 40 min at 37 °C. Thereafter, the cells were incubated with 50 μL of 3× detection mix solution (consisting of Ru-cAMP Alexa700 anti-cAMP antibody and lysis buffer) for 40 min at 37 °C, while covered with black lids and under forceful shaking. The fluorescence (456 nm excitation wavelength; 630 and 700 nm emission wavelengths) was measured using a NanoScan reader (Innovate Optische Messtechnik, Berlin, Germany) and the FRET signal was calculated using the following equation: FRET (700 nm) – P × FRET (630 nm). P was equal to Ru (700 nm)/Ru (630 nm).

hα2A adrenergic receptor = molecular target: T2, hα2A adrenergic receptor (Homo sapiens, UniProt P08913); experiment: Radioligand binding, α2A adrenergic receptor ([3H]rauwolscine)
T2 sequence (P08913 1-465): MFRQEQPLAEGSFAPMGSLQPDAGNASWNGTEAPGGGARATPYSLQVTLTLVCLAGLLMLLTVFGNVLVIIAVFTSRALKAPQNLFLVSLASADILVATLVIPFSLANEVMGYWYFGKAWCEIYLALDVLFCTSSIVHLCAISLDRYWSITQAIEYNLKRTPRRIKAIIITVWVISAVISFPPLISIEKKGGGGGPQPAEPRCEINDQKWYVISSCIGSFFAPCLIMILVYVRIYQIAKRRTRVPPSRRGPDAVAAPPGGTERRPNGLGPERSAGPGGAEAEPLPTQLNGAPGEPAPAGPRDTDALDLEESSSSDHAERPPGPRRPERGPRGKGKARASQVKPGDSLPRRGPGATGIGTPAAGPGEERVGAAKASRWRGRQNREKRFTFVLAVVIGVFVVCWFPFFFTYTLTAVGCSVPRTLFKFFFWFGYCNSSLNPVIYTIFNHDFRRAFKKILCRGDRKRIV

hSERT = hSERT (Homo sapiens, UniProt P31645); experiment: Radioligand binding, SERT ([3H]citalopram); details: hSERT Ki ± SD, [3H]citalopram
h5-HT2A receptor = h5-HT2A receptor (Homo sapiens, UniProt P28223); experiment: Radioligand binding, 5-HT2A receptor ([3H]ketanserin); details: for Selectivity (binding ratio) 5-HT2A/5-HT1A: preference for 5-HT2A (Ki 5-HT1A divided by Ki 5-HT2A); for Selectivity (binding ratio) 5-HT2A/5-HT2C: preference for 5-HT2A (Ki 5-HT2C divided by Ki 5-HT2A)
hDAT = hDAT (Homo sapiens, UniProt Q01959); experiment: Radioligand binding, DAT ([3H]WIN35,428); details: hDAT Ki ± SD, [3H]WIN35,428
h5-HT1A receptor = molecular target: T3, h5-HT1A receptor (Homo sapiens, UniProt P08908); experiment: Radioligand binding, 5-HT1A receptor ([3H]8-OH-DPAT)
T3 sequence (P08908 1-422): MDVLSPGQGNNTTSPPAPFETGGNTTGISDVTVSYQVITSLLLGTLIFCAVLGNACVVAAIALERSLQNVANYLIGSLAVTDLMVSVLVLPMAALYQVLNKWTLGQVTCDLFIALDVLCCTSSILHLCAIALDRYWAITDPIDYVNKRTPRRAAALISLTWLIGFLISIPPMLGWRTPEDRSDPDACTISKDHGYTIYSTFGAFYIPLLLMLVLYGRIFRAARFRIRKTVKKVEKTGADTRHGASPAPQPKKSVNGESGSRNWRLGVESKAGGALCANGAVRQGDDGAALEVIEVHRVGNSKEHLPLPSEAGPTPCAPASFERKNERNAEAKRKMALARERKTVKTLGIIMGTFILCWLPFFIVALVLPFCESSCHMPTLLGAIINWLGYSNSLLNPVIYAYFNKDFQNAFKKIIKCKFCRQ

hDAT, sequence (Q01959 whole entry): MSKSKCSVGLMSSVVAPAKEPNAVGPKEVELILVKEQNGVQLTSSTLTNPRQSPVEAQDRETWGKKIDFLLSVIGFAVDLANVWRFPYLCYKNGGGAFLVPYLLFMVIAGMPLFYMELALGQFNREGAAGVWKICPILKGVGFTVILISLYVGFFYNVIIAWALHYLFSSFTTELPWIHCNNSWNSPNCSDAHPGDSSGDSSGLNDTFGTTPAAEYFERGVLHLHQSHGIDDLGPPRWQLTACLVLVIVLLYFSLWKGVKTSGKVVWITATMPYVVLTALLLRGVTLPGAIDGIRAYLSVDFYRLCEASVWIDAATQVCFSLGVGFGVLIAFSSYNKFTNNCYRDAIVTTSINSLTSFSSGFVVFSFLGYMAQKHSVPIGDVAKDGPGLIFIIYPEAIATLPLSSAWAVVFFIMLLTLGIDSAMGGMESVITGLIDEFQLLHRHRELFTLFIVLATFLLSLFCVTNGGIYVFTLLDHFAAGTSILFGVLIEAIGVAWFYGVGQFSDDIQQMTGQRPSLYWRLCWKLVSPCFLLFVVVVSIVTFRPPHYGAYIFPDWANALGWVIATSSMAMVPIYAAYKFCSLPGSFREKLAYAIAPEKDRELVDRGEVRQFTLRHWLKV
hSERT, sequence (P31645 whole entry): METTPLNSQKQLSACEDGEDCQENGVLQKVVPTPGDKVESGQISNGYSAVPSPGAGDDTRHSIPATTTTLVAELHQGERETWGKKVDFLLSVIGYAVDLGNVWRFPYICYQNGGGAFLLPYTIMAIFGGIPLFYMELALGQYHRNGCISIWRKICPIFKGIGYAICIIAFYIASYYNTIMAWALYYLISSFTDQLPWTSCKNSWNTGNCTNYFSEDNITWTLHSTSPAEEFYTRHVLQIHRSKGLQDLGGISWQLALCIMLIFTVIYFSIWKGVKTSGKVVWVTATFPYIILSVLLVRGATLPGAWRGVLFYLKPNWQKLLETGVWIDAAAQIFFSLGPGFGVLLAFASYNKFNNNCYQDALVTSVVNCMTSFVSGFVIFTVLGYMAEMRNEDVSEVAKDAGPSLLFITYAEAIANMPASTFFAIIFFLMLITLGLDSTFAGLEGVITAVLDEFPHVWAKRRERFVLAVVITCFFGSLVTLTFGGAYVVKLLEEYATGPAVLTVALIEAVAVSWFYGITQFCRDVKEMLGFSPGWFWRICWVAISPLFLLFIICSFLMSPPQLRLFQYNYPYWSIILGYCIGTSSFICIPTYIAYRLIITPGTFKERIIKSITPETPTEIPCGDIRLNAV
h5-HT2A receptor, sequence (P28223 whole entry): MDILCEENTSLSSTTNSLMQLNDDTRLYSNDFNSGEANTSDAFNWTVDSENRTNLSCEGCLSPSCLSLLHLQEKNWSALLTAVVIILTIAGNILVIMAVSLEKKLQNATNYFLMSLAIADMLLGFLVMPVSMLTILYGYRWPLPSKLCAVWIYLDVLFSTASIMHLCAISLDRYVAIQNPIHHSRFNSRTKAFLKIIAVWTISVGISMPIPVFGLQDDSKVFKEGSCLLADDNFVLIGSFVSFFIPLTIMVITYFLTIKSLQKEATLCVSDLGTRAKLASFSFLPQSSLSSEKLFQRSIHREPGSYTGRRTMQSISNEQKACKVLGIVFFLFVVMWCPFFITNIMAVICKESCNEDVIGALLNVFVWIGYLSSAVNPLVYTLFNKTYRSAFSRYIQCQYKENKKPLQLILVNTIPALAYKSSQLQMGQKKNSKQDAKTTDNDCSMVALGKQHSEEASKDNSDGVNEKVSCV
hD2 receptor, sequence (P14416 whole entry): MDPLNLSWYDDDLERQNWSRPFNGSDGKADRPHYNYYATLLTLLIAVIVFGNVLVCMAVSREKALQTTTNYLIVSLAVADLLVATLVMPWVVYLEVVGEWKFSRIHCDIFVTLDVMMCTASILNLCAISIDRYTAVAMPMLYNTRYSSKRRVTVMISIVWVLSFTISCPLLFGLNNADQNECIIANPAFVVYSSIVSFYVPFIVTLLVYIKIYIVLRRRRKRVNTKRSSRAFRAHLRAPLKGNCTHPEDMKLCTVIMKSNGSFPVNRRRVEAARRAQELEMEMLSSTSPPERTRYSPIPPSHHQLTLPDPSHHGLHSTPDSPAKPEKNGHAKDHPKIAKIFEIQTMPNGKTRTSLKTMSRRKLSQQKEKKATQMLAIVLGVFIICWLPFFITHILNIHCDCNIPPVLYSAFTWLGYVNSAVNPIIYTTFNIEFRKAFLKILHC

SMILES	Ki (hD2 receptor) [µM]	EC50 (human TAAR1) [µM]	Ki (hα2A adrenergic receptor) [µM]	Ki (hSERT) [µM]	Ki (h5-HT2A receptor) [µM]	Selectivity (binding ratio) 5-HT2A/5-HT1A (h5-HT2A receptor)	Selectivity (binding ratio) 5-HT2A/5-HT2C (h5-HT2A receptor)	Ki (hDAT) [µM]	Ki (h5-HT1A receptor) [µM]
CCOc1cc(OC)c(CC(C)N)c(OC)c1 (stereo not drawn) [Ψ-MEM, 2,6-dimethoxy-4-ethoxyamphetamine]	> 6	2.2	2.2	> 7.5	0.49 ± 0.02	>11	10	> 8.5	> 5.6
COc1cc(OCCF)cc(OC)c1CC(C)N (stereo not drawn) [Ψ-MFEM, 2,6-dimethoxy-4-(2-fluoroethoxy)amphetamine]	> 6	1.9	4.1	> 7.5	1.4	>4	7.1	> 8.5	> 5.6
C=C(C)COc1cc(OC)c(CC(C)N)c(OC)c1 (stereo not drawn) [Ψ-MMALM, 2,6-dimethoxy-4-methallyloxyamphetamine]	> 6	2.5	1.4	> 7.5	0.052 ± 0.01	>108	5.6	5.7	> 5.6
COc1cc(OCC(F)(F)F)cc(OC)c1CC(C)N (stereo not drawn) [Ψ-MTFEM, 2,6-dimethoxy-4-(2,2,2-trifluoroethoxy)amphetamine]	> 6	1.1	3.8	> 7.5	0.57 ± 0.08	>10	9.6	6.4	> 5.6
